Where a chain is given by its changes, count along the chain named. Where two headings read alike, the source gives them in different places.
How the values were obtained:
IDH2 R140Q = biological target: T1, IDH2 R140Q (Homo sapiens, UniProt P48735, R140Q); assay: IDH2 R140Q enzymatic assay (cofactor depletion, similar format); type: biochemical
T1 sequence (P48735 40-452 R140Q): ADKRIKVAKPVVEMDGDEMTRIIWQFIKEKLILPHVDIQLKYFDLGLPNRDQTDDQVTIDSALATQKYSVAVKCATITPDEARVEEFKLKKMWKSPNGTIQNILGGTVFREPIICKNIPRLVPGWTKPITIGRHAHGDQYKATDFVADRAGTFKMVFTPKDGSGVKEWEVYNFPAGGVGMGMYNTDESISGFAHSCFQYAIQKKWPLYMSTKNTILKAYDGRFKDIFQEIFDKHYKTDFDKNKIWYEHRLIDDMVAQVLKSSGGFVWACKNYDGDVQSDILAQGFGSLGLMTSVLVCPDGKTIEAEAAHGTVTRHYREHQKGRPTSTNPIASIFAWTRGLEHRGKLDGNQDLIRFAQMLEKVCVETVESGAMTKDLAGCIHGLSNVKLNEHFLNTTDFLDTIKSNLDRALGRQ

IDH2 R172K = biological target: T2, IDH2 R172K (Homo sapiens, UniProt P48735, R172K); assay: IDH2 R172K enzymatic assay (NADPH cofactor depletion, diaphorase/resazurin readout); type: biochemical; conditions: read-out: Enz R172K
T2 sequence (P48735 40-452 R172K): T1 sequence (P48735 40-452 R140Q) with Q101R, R133K
Method in brief: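 Cofactor depletion format: enzyme + compound 1 h RT; add substrate mix (50 μM NADPH, 6.3 mM α-KG); react 1 h RT; quench with stop mix (36 μg/ml diaphorase, 60 μM resazurin); read resorufin fluorescence as residual NADPH.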

[1] = tested on: U87MG pLVX-IDH2 R140Q-neo cells; assay: U87MG pLVX-IDH2 R140Q-neo cell based assay, 2-HG in media by LC-MS at 48 hours; conditions: Homo sapiens, U-87 MG
Method in brief: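 2-HG secreted into the medium was measured by LC-MS after 48 h of compound treatment (0.2% DMSO final) of U87MG pLVX-IDH2 R140Q-neo cells in DMEM/10% FBS. The same wells were assayed at 72 h by CellTiter-Glo luminescence for effects on growth.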

CC(C)Nc1nc(Nc2ccnc(C(F)(F)F)c2)nc(-c2cccc([S+](C)[O-])c2)n1 (stereo not drawn) [Compound 653, N-Isopropyl-6-(3-methanesulfinyl-phenyl)-N′-(2-trifluoromethyl-pyridin-4-yl)-[1,3,5]triazine-2,4-diamine]
IC50 (IDH2 R140Q; read-out: Enz R140Q): 0.1 to 1 µM
IC50 (IDH2 R172K): 0.1 to 1 µM
IC50 [1]: < 0.1 µM

OC1(CNc2nc(Nc3cc(F)cc(F)c3)nc(-c3cccc(C(F)(F)F)n3)n2)CC1 [Compound 541, 1-{[4-(3,5-Difluoro-phenylamino)-6-(6-trifluoromethyl-pyridin-2-yl)-[1,3,5]triazin-2-ylamino]-methyl}-cyclopropanol]
IC50 (IDH2 R140Q; read-out: Enz R140Q): 0.1 to 1 µM
IC50 (IDH2 R172K): 0.1 to 1 µM
IC50 [1]: < 0.1 µM

CC(C)(C)Nc1nc(Nc2cc(F)cc(F)c2)nc(-c2nccc(N)n2)n1 [Compound 479, 6-(4-Amino-pyrimidin-2-yl)-N-tert-butyl-N′-(3,5-difluoro-phenyl)-[1,3,5]triazine-2,4-diamine]
IC50 (IDH2 R140Q; read-out: Enz R140Q): 0.1 to 1 µM
IC50 (IDH2 R172K): 0.1 to 1 µM
IC50 [1]: < 0.1 µM

CC1(Nc2nc(Nc3ccncc3)nc(-c3ccccc3)n2)CC1 [Compound 218, N^2-(1-methylcyclopropyl)-6-phenyl-N^4-(pyridin-4-yl)-1,3,5-triazine-2,4-diamine]
IC50 (IDH2 R140Q; read-out: Enz R140Q): < 0.1 µM
IC50 (IDH2 R172K): 1 to 10 µM
IC50 [1]: 0.1 to 1 µM

c1ccc(-c2nc(Nc3ccncc3)nc(NC3CCOC3)n2)cc1 (stereo not drawn) [Compound 235, 6-phenyl-N^2-(pyridin-4-yl)-N^4-(tetrahydrofuran-3-yl)-1,3,5-triazine-2,4-diamine]
IC50 (IDH2 R140Q; read-out: Enz R140Q): 0.1 to 1 µM
IC50 (IDH2 R172K): 1 to 10 µM
IC50 [1]: 0.1 to 1 µM

CC(C)Nc1nc(Nc2ccc(C#N)cc2)nc(-c2ccccc2)n1 [Compound 141]
IC50 (IDH2 R140Q; read-out: Enz R140Q): < 0.1 µM
IC50 (IDH2 R172K): 0.1 to 1 µM
IC50 [1]: 0.1 to 1 µM

c1ccc(Nc2nc(NCC3CC3)nc(-c3ccccc3)n2)cc1 [Compound 111]
IC50 (IDH2 R140Q; read-out: Enz R140Q): < 0.1 µM
IC50 (IDH2 R172K): < 0.1 µM
IC50 [1]: < 0.1 µM

CC(C)Nc1nc(Nc2ccnc(C(F)(F)F)c2)nc(-c2cccc(C(N)=O)c2)n1 [Compound 651]
IC50 (IDH2 R140Q; read-out: Enz R140Q): 0.1 to 1 µM
IC50 (IDH2 R172K): 0.1 to 1 µM
IC50 [1]: < 0.1 µM

CC(C)(O)CNc1nc(Nc2ccc(F)nc2)nc(-c2ccccc2F)n1 [Compound 622, 1-(4-(2-fluorophenyl)-6-(6-fluoropyridin-3-ylamino)-1,3,5-triazin-2-ylamino)-2-methylpropan-2-ol]
IC50 (IDH2 R140Q; read-out: Enz R140Q): 0.1 to 1 µM
IC50 (IDH2 R172K): 0.1 to 1 µM
IC50 [1]: 0.1 to 1 µM

CC(C)C(C)Nc1nc(Nc2ccncc2)nc(-c2ccccc2)n1 (stereo not drawn) [Compound 213, N^2-(3-methylbutan-2-yl)-6-phenyl-N^4-(pyridin-4-yl)-1,3,5-triazine-2,4-diamine]
IC50 (IDH2 R140Q; read-out: Enz R140Q): < 0.1 µM
IC50 (IDH2 R172K): 0.1 to 1 µM
IC50 [1]: < 0.1 µM

c1ccc(Nc2nc(NC3CCCOC3)nc(-c3ccccc3)n2)cc1 (stereo not drawn) [Compound 268, N^2,6-diphenyl-N^4-(tetrahydro-2H-pyran-3-yl)-1,3,5-triazine-2,4-diamine]
IC50 (IDH2 R140Q; read-out: Enz R140Q): < 0.1 µM
IC50 (IDH2 R172K): 0.1 to 1 µM
IC50 [1]: 0.1 to 1 µM

CC(C)Nc1nc(Nc2ccnc(F)c2)nc(-c2ccccc2)n1 [Compound 223, N^2-(2-fluoropyridin-4-yl)-N^4-isopropyl-6-phenyl-1,3,5-triazine-2,4-diamine]
IC50 (IDH2 R140Q; read-out: Enz R140Q): < 0.1 µM
IC50 (IDH2 R172K): < 0.1 µM
IC50 [1]: < 0.1 µM

CC(C)Nc1nc(Nc2ccc(F)cc2F)nc(-c2ccccc2)n1 [Compound 140]
IC50 (IDH2 R140Q; read-out: Enz R140Q): < 0.1 µM
IC50 (IDH2 R172K): 1 to 10 µM
IC50 [1]: 0.1 to 1 µM

CC(C)Nc1nc(Nc2ccnc(C3(C)CC3)c2)nc(-c2cccc(C(F)(F)F)n2)n1 [Compound 581, N-Isopropyl-N′-[2-(1-methyl-cyclopropyl)-pyridin-4-yl]-6-(6-trifluoromethyl-pyridin-2-yl)-[1,3,5]triazine-2,4-diamine]
IC50 (IDH2 R140Q; read-out: Enz R140Q): 0.1 to 1 µM
IC50 (IDH2 R172K): < 0.1 µM
IC50 [1]: < 0.1 µM

CC(C)(O)CNc1nc(Nc2ccnc(C(F)(F)F)c2)nc(-c2cccc(C(F)(F)F)n2)n1 [Compound 409, 2-methyl-1-(4-(6-(trifluoromethyl)pyridin-2-yl)-6-(2-(trifluoromethyl)pyridin-4-ylamino)-1,3,5-triazin-2-ylamino)propan-2-ol]
IC50 (IDH2 R140Q; Enz R140Q): 0.1 to 1 µM
IC50 (IDH2 R172K): 0.1 to 1 µM
IC50 [1]: < 0.1 µM

c1ccc(Nc2nc(NC3CC3)nc(-c3ccccc3)n2)cc1 [Compound 110]
IC50 (IDH2 R140Q; read-out: Enz R140Q): < 0.1 µM
IC50 (IDH2 R172K): 0.1 to 1 µM
IC50 [1]: < 0.1 µM

CC(C)Nc1nc(Nc2cccc(F)c2)nc(-c2ccccc2)n1 [Compound 178, N-(3-Fluoro-phenyl)-N′-isopropyl-6-phenyl-[1,3,5]triazine-2,4-diamine]
IC50 (IDH2 R140Q; read-out: Enz R140Q): < 0.1 µM
IC50 (IDH2 R172K): < 0.1 µM
IC50 [1]: < 0.1 µM

CC(C)Nc1nc(Nc2ccnc(F)c2)nc(-c2nccc(C(F)(F)F)n2)n1 [Compound 537, N-(2-Fluoro-pyridin-4-yl)-N′-isopropyl-6-(4-trifluoromethyl-pyrimidin-2-yl)-[1,3,5]triazine-2,4-diamine]
IC50 (IDH2 R140Q; read-out: Enz R140Q): 0.1 to 1 µM
IC50 (IDH2 R172K): < 0.1 µM
IC50 [1]: < 0.1 µM

CC(C)(C)Nc1nc(Nc2ccccc2)nc(-c2ccccc2)n1 [Compound 112]
IC50 (IDH2 R140Q; read-out: Enz R140Q): < 0.1 µM
IC50 (IDH2 R172K): 0.1 to 1 µM
IC50 [1]: 0.1 to 1 µM

CC(C)Nc1nc(Nc2ccnc(C(F)(F)F)c2)nc(-c2ccccc2)n1 [Compound 202, N^2-isopropyl-6-phenyl-N^4-(2-(trifluoromethyl)pyridin-4-yl)-1,3,5-triazine-2,4-diamine]
IC50 (IDH2 R140Q; read-out: Enz R140Q): < 0.1 µM
IC50 (IDH2 R172K): < 0.1 µM
IC50 [1]: < 0.1 µM

CC(C)Nc1nc(Nc2ccccc2)nc(-c2ccccn2)n1 [Compound 214, N-Isopropyl-N′-phenyl-6-pyridin-2-yl-[1,3,5]triazine-2,4-diamine]
IC50 (IDH2 R140Q; read-out: Enz R140Q): < 0.1 µM
IC50 (IDH2 R172K): 0.1 to 1 µM
IC50 [1]: 0.1 to 1 µM

CC(C)Nc1nc(Nc2ccncc2)nc(-c2ccccc2F)n1 [Compound 227, 6-(2-fluorophenyl)-N^2-isopropyl-N^4-(pyridin-4-yl)-1,3,5-triazine-2,4-diamine]
IC50 (IDH2 R140Q; read-out: Enz R140Q): < 0.1 µM
IC50 (IDH2 R172K): 0.1 to 1 µM
IC50 [1]: < 0.1 µM

CC(C)Nc1nc(Nc2ccncc2)nc(-c2ccccc2)n1 [Compound 129, N^2-isopropyl-6-phenyl-N^4-(pyridin-4-yl)-1,3,5-triazine-2,4-diamine]
IC50 (IDH2 R140Q; read-out: Enz R140Q): < 0.1 µM
IC50 (IDH2 R172K): 1 to 10 µM
IC50 [1]: 0.1 to 1 µM

CC(C)Nc1nc(Nc2ccnc(C(C)(F)F)c2)nc(-c2cccc(C(C)(F)F)n2)n1 [Compound 576, 6-[6-(1,1-Difluoro-ethyl)-pyridin-2-yl]-N-[2-(1,1-difluoro-ethyl)-pyridin-4-yl]-N′-isopropyl-[1,3,5]triazine-2,4-diamine]
IC50 (IDH2 R140Q; read-out: Enz R140Q): 0.1 to 1 µM
IC50 (IDH2 R172K): 0.1 to 1 µM
IC50 [1]: < 0.1 µM

CC(C)(C)Nc1nc(Nc2cc(F)cc(S(C)(=O)=O)c2)nc(-c2cccc(O)c2)n1 [Compound 646, 3-(4-(tert-butylamino)-6-((3-fluoro-5-(methylsulfonyl)phenyl)amino)-1,3,5-triazin-2-yl)phenol]
IC50 (IDH2 R140Q; read-out: Enz R140Q): 0.1 to 1 µM
IC50 (IDH2 R172K): < 0.1 µM
IC50 [1]: < 0.1 µM

CC(C)Nc1nc(Nc2ccncc2)nc(-c2cccc(F)c2)n1 [Compound 184, 6-(3-fluorophenyl)-N^2-isopropyl-N^4-(pyridin-4-yl)-1,3,5-triazine-2,4-diamine]
IC50 (IDH2 R140Q; read-out: Enz R140Q): < 0.1 µM
IC50 (IDH2 R172K): 1 to 10 µM
IC50 [1]: 0.1 to 1 µM

CC(C)(C)CNc1nc(Nc2cncnc2)nc(-c2cccc(C(F)(F)F)n2)n1 [Compound 521, N-(2,2-Dimethyl-propyl)-N′-pyrimidin-5-yl-6-(6-trifluoromethyl-pyridin-2-yl)-[1,3,5]triazine-2,4-diamine]
IC50 (IDH2 R140Q; read-out: Enz R140Q): 0.1 to 1 µM
IC50 (IDH2 R172K): < 0.1 µM
IC50 [1]: < 0.1 µM

CC(C)(C)Nc1nc(Nc2cc(F)cc(F)c2)nc(-c2cccc(C(F)(F)F)n2)n1 [Compound 601, N2-(tert-butyl)-N4-(3,5-difluorophenyl)-6-(6-(trifluoromethyl)pyridin-2-yl)-1,3,5-triazine-2,4-diamine]
IC50 (IDH2 R140Q; read-out: Enz R140Q): 0.1 to 1 µM
IC50 (IDH2 R172K): < 0.1 µM
IC50 [1]: < 0.1 µM

COC(C)CNc1nc(Nc2ccnc(C(F)(F)F)c2)nc(-c2cccc(C(F)(F)F)n2)n1 (stereo not drawn) [Compound 524, N-(2-Methoxy-propyl)-6-(6-trifluoromethyl-pyridin-2-yl)-N′-(2-trifluoromethyl-pyridin-4-yl)-[1,3,5]triazine-2,4-diamine]
IC50 (IDH2 R140Q; read-out: Enz R140Q): 0.1 to 1 µM
IC50 (IDH2 R172K): < 0.1 µM
IC50 [1]: < 0.1 µM
